Common to all, as to type: cell-based
For test [1], the system named is PD1-ss+10aa/Gaussia Luciferase. Put plainly: Dox-Induced PD1-ss-Gluc Assay. The note with it: 24 hr doxycycline induction, 293FRT/TO cells, Gaussia luciferase signal; read-out: 24 hr Dox Inducible PD1ssGluc 293FRT/TO: Mean IC50. The protocol: (§1) Transfected cells were selected for resistance to the selectable markers Hygromycin and Blasticidin to create a stable cell line that contained the PD1-ss+10aa/Gaussia Luciferase cDNA insert whose expression was regulated under the T-REx™ system. The day before assay, cells were trypsinized and plated in 384-well tissue culture plates. The next day, compound dilutions in DMSO/media containing doxycycline were added to the wells and incubated at 37° C., 5% CO2.
(§2) For chemical structures that include one or more stereoisomers, but are illustrated without indicating stereochemistry, the assay data refers to a mixture of stereoisomers.

The subject of test [2] is TNFα-FL/Gaussia Luciferase. Put plainly: Dox Induced TNFα-FL-Gluc Assay. The note with it: 24 hr doxycycline induction, 293FRT/TO cells, Gaussia luciferase signal; read-out: 24 hr Dox Inducible TNFaFLGluc 293FRT/TO: Mean IC50. The protocol: as §1, with “TNFα-FL/Gaussia” for “PD1-ss+10aa/Gaussia”, “T-RExTM” for “T-REx™”, “CO2. […] For chemical structures that include one or more stereoisomers, but are illustrated without indicating stereochemistry, the assay data refers to a mixture of stereoisomers.” for “CO2.”

Test [3] has as its system HER3-ss+4aa/Gaussia Luciferase. Kind of test: Dox-Induced Her3-ss-Gluc Assay. The note with it: 24 hr doxycycline induction, 293FRT/TO cells, Gaussia luciferase signal; read-out: 24 hr Dox Inducible Her3(ss + 4)Gluc 293FRT/TO: Mean IC50. The protocol: Transfected cells were selected for resistance to the selectable markers Hygromycin and Blasticidin to create a stable cell line that contained the HER3-ss+4aa/Gaussia Luciferase cDNA insert whose expression was regulated under the T-REx™ system. The day before assay, cells were trypsinized and plated in 384-well tissue culture plates. The next day, compound dilutions in DMSO/media containing doxycycline were added to the wells and incubated at 37° C., 5% CO2.
as §2

The test system of test [4] is IL-2-FL/Gaussia Luciferase. Put plainly: Dox Induced IL2-FL-Gluc Assay. The note with it: 24 hr doxycycline induction, 293FRT/TO cells, Gaussia luciferase signal; read-out: 24 hr Dox Inducible IL2FLGIuc 293FRT/TO: Mean IC50. As to the method: as §1, with “IL-2-FL/Gaussia” for “PD1-ss+10aa/Gaussia”, “T-RExTM” for “T-REx™”, “CO2. […] For chemical structures that include one or more stereoisomers, but are illustrated without indicating stereochemistry, the assay data refers to a mixture of stereoisomers.” for “CO2.”

The subject of test [5] is human multiple myeloma cell line NCI-H929. Kind of test: H929 Cell Viability Assay. The note with it: 48 hr, NCI-H929 cells, Celltiter-Glo, read-out: 48 hr H929 Viability Celltiter-Glo: Mean EC50. As to the method: Plates were incubated at 37° C., 5% CO2 for 48 hours. After 48 hours, Celltiter-Glo® (Promega) was added to each well and luciferase signal was quantified using Tecan Infinite M1000 Pro for cell viability determination.
as §2

The test system of test [6] is human multiple myeloma cell line U266B1. Put plainly: U266 Cell Viability Assay. The note with it: U-266, 48 hr, U266B1 cells, Celltiter-Glo, read-out: 48 hr U266 Viability Celltiter-Glo: Mean EC50. The protocol: Cells were plated in 384-well tissue culture plates and treated with compound dilutions in DMSO/media. Plates were incubated at 37° C., 5% CO2 for 48 hours. After 48 hours, Celltiter-Glo® (Promega) was added to each well and luciferase signal was quantified using Tecan Infinite M1000 Pro for cell viability determination.
as §2

We go through 17 compounds from patent US20220153732A1, “PROTEIN SECRETION INHIBITORS” (KEZAR LIFE SCIENCES, priority 2019, published 2022).

Some results are limits rather than exact numbers.

As for `CCOC(C)(C)c1csc(NC(=O)c2cccn2Cc2ccncc2)n1` [Compound A27, N-(4-(2-ethoxypropan-2-yl)thiazol-2-yl)-1-(pyridin-4-ylmethyl)-1H-pyrrole-2-carboxamide], the IC50 is 0.445 µM in test [1], 9.53 µM in test [2], 0.822 µM in test [3] and 0.32 µM in test [4]. The EC50 in test [5] and in test [6] was above 25 µM each time.
As to `CC(C)OC(C)c1csc(NC(=O)c2cccn2Cc2ccncc2)n1` (stereo not drawn) [Compound A28, N-(4-(1-isopropoxyethyl)thiazol-2-yl)-1-(pyridin-4-ylmethyl)-1H-pyrrole-2-carboxamide], the IC50 in test [1] came out at 0.462 µM; in test [2] it was 3.95 µM; in test [3], 0.752 µM; in test [4] it was 0.401 µM. The EC50 in test [5] and in test [6] was above 25 µM in each case.
In the case of `CC(F)(F)c1csc(NC(=O)c2cccn2Cc2ccncc2)n1` [Compound A29, N-(4-(1,1-difluoroethyl)thiazol-2-yl)-1-(pyridin-4-ylmethyl)-1H-pyrrole-2-carboxamide], the IC50 in test [1] came out at 0.488 µM; in test [2] it was 19.6 µM; in test [3], 1.24 µM; in test [4], 0.935 µM. Also, the EC50 in test [5] and in test [6] was above 25 µM throughout.
As to `CC(C)OC(C)(C)c1nc(NC(=O)c2cccn2Cc2ccncc2)sc1Br` [Compound A30], the IC50 came to 0.552 µM in test [1], 11.8 µM in test [2], 0.809 µM in test [3] and 0.927 µM in test [4]. The EC50 is 22.7 µM in test [5] and above 25 µM in test [6].
With `O=C(Nc1nc(C2CCC2)cs1)c1cccn1Cc1ccncc1` [Compound A31], the IC50 was determined as 0.596 µM in test [1], 11.8 µM in test [2], 1.63 µM in test [3] and 1.34 µM in test [4]. Also, the EC50 in test [5] and in test [6] was above 25 µM throughout.
In the case of `CCc1nc(NC(=O)c2cccn2Cc2ccncc2)sc1C` [Compound A32, N-(4-ethyl-5-methylthiazol-2-yl)-1-(pyridin-4-ylmethyl)-1H-pyrrole-2-carboxamide], the IC50 in test [1] was 0.633 µM; in test [2], above 20.3 µM; in test [3], 1.33 µM; in test [4], 1.98 µM. The EC50 in test [5] and in test [6] was above 25 µM each time.
Turning to `O=C(Nc1nc(/C=C/c2ccccc2)cs1)c1cccn1CCCc1ccncc1` [Compound A33, 1-(3-(pyridin-4-yl)propyl)-N-(4-styrylthiazol-2-yl)-1H-pyrrole-2-carboxamide], the IC50 was 0.663 µM in test [1], above 25 µM in test [2], 1.62 µM in test [3] and 2.47 µM in test [4]. Besides, the EC50 in test [5] was determined as 8.99 µM; in test [6] it was 6.89 µM.
On to `O=C(Nc1ncc(Cc2ccccc2)s1)c1cccn1Cc1ccncc1` [Compound A34, N-(5-benzylthiazol-2-yl)-1-(pyridin-4-ylmethyl)-1H-pyrrole-2-carboxamide], for which the IC50 in test [1] was 0.674 µM; in test [2], above 25 µM; in test [3], 2.42 µM; in test [4], 4.24 µM. For the same compound, the EC50 in test [5] and in test [6] was above 25 µM each time.
Consider `CCc1csc(NC(=O)c2cccn2Cc2ccncc2)n1` [Compound A35, N-(4-ethylthiazol-2-yl)-1-(pyridin-4-ylmethyl)-1H-pyrrole-2-carboxamide], for which the IC50 in test [1] was 0.692 µM; in test [2] it was above 25 µM; in test [3], 1.94 µM; in test [4], 2.3 µM. The EC50 in test [5] and in test [6] was above 25 µM throughout.
Regarding `CC(C)OC(C)(C)c1csc(NC(=O)c2cccn2Cc2cc(F)nc(F)c2)n1` [Compound A36, 1-((2,6-difluoropyridin-4-yl)methyl)-N-(4-(2-isopropoxypropan-2-yl)thiazol-2-yl)-1H-pyrrole-2-carboxamide], the IC50 was 0.698 µM in test [1], 21 µM in test [2], 1.14 µM in test [3] and 0.896 µM in test [4]. The EC50 in test [5] and in test [6] was above 25 µM throughout.
For `Cc1sc(NC(=O)c2cccn2Cc2ccncc2)nc1C(C)(C)OC(C)C` [Compound A37, N-(4-(2-isopropoxypropan-2-yl)-5-methylthiazol-2-yl)-1-(pyridin-4-ylmethyl)-1H-pyrrole-2-carboxamide], the IC50 in test [1] was 0.703 µM; in test [2], 12.1 µM; in test [3], 1.24 µM; in test [4], 1.07 µM. The EC50 in test [5] and in test [6] was above 25 µM each time.
For the compound `Cc1sc(NC(=O)c2cccn2Cc2ccncc2)nc1C(C)C` [Compound A38], the IC50 amounted to 0.706 µM in test [1], 14.8 µM in test [2], 1.2 µM in test [3] and 1.41 µM in test [4]. In addition, the EC50 in test [5] and in test [6] was above 25 µM in each case.
As to `CC(C)(OCC1CCCCO1)c1csc(NC(=O)c2cccn2Cc2ccncc2)n1` (stereo not drawn) [Compound A39, 1-(pyridin-4-ylmethyl)-N-(4-(2-((tetrahydro-2H-pyran-2-yl)methoxy)propan-2-yl)thiazol-2-yl)-1H-pyrrole-2-carboxamide], the IC50 in test [1] is 0.723 µM; in test [2], 13.1 µM; in test [3] it was 1.49 µM; in test [4] it was 1.34 µM. In addition, the EC50 in test [5] and in test [6] was above 25 µM throughout.
On to `CC(C)(OCC1CCOCC1)c1csc(NC(=O)c2cccn2Cc2ccncc2)n1` [Compound A40, 1-(pyridin-4-ylmethyl)-N-(4-(2-((tetrahydro-2H-pyran-4-yl)methoxy)propan-2-yl)thiazol-2-yl)-1H-pyrrole-2-carboxamide], for which the IC50 in test [1] stood at 0.858 µM; in test [2] it was 12.6 µM; in test [3], 1.56 µM; in test [4] it was 1.21 µM. Moreover, the EC50 in test [5] and in test [6] was above 25 µM throughout.
Take `CC(C)OC(C)(C)c1csc(NC(=O)c2cccn2Cc2ccncc2Br)n1` [Compound A41, 1-((3-bromopyridin-4-yl)methyl)-N-(4-(2-isopropoxypropan-2-yl)thiazol-2-yl)-1H-pyrrole-2-carboxamide]: the IC50 in test [1] is 0.878 µM; in test [2], 12 µM; in test [3] it was 2.39 µM; in test [4], 1.98 µM. In addition, the EC50 in test [5] is 9.52 µM; in test [6], above 25 µM.
As to `Cc1nc(NC(=O)c2cccn2Cc2ccncc2)sc1F` [Compound A42], the IC50 in test [1] is 0.939 µM; in test [2] it was above 25 µM; in test [3], 2.18 µM; in test [4], 3.79 µM. Further, the EC50 in test [5] and in test [6] was above 25 µM each time.
Consider `CCc1sc(NC(=O)c2cccn2Cc2ccncc2)nc1C` [Compound A43], for which the IC50 is 0.942 µM in test [1], above 25 µM in test [2], 2.21 µM in test [3] and 2.67 µM in test [4]. Besides, the EC50 in test [5] and in test [6] was above 25 µM throughout.
